Source: ChEMBL document CHEMBL1926606, “Cannabinomimetic lipid from a marine cyanobacterium” (J Nat Prod, 2011)
Calls of active or inactive are those of the source. No cut-off for these calls is given here.

Tests used:
Cannabinoid receptor 1 = Cannabinoid receptor 1 (Homo sapiens, UniProt P21554); test: Displacement of [3H]CP55940 from human recombinant CB1 receptor expressed in HEK293 cells after 90 mins; type: cell-based
Cannabinoid receptor 2 = Cannabinoid receptor 2 (Homo sapiens, UniProt P34972); test: Displacement of [3H]CP55940 from human recombinant CB2 receptor expressed in HEK293 cells after 90 mins; type: cell-based
NCI-H460 [1] = test: Cytotoxicity against human H460 cells assessed as cell survival up to 20 ug/ml; type: functional, cell-based
Homo sapiens = organism: Homo sapiens; test: Selectivity ratio of IC50 for human recombinant CB1 receptor to IC50 for human recombinant CB2 receptor
NCI-H460 [2] = test: Cytotoxicity against human H460 cells assessed as cell survival at 50 ug/ml; type: functional; details: read-out: Activity
NCI-H460 [3] = test: Cytotoxicity against human H460 cells assessed as cell survival at 5 ug/ml; type: functional; details: read-out: Activity

Cannabinoid receptor 2, sequence (P34972 whole entry): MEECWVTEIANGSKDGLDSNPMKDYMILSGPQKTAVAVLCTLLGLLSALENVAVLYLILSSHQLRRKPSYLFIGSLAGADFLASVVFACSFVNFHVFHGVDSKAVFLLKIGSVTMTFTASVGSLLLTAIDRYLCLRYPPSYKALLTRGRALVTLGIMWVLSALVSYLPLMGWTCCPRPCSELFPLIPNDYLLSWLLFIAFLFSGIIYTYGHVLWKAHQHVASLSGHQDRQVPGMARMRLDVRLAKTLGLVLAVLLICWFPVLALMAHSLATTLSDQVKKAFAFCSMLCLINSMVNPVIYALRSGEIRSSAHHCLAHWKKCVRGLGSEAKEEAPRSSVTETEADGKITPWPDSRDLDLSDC
Cannabinoid receptor 1, sequence (P21554 whole entry): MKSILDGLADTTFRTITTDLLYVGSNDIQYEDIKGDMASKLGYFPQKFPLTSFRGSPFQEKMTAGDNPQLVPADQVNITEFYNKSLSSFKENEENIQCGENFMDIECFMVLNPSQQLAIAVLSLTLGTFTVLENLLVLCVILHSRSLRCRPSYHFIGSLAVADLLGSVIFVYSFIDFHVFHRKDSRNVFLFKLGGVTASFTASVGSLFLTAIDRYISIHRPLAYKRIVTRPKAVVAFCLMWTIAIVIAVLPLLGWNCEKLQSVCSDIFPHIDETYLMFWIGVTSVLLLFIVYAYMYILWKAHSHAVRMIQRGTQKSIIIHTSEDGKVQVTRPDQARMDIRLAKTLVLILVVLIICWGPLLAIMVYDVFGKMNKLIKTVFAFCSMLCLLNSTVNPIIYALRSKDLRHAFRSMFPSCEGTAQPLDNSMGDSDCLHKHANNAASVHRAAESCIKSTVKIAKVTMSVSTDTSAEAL

SMILES	IC50 (Cannabinoid receptor 1) [µM]	IC50 (Cannabinoid receptor 2) [µM]	Activity (NCI-H460 [1])	Ki (Cannabinoid receptor 1) [µM]	Ki (Cannabinoid receptor 2) [µM]	Ratio IC50 (Homo sapiens)	viability at 50 µg/mL (NCI-H460 [2]) [%]	viability at 5 µg/mL (NCI-H460 [3]) [%]
C=C(CCCCCCCCCCCCC)CCCC(=O)O/C=C\COC(C)=O	> 10	> 10	inactive	–	–	–	–	–
CCCCC/C=C\C/C=C\C/C=C\C/C=C\CCCC(=O)N[C@@H](CO)C(=O)O	–	–	–	> 10	> 10	–	–	–
CCCCCCCCCCCCC/C=C/CCC(=O)N(C)[C@H](CO)COC [SERINOLAMIDE A]	2.3	> 10	–	1.3	–	> 5	0	60
